# Publication PMC11513923, “Discovery of ZLC491 as a Potent, Selective, and Orally Bioavailable CDK12/13 PROTAC Degrader” (Journal of Medicinal Chemistry, 2024)
# Key:
# Assay in all cases: TMT-labeled quantitative proteomics in MDA-MB-231 cells
# CDK12 = CDK12 (Homo sapiens, UniProt Q9NYV4); assay type: cell-based; set-up: endogenous in cells; host or cells: MDA-MB-231; conditions: 8 h
# Procedure: (§1) The global proteomic selectivity of ZLC491 was investigated by using the tandem mass tag (TMT) labeled mass-spectrometry. […] CDK13 was not detected in either degrader treatment groups or DMSO control groups, likely due to its insufficient cellular expression for mass spectrometry detection.
# (§2) Figure 5 ZLC491 degraded CDK12/13 with high selectivity. (A) Global proteomic analysis of ZLC491 in MDA-MB-231 cells after 8 h treatment of DMSO or 2 μM ZLC491; (B) mass-spec quantification of CDKs changes; (C) immunoblotting of target protein degradation in samples for proteomic analysis.
# (§3) MDA-MB-231 cells were seeded at 8 × 10^5 cells in 6 cm dishes 24 h before treating with 2 μM ZLC491 or DMSO in quadruplicate or triplicate for 8 h. Cell lysates were prepared by washing cells twice with cold PBS and adding 180 μL lysis buffer (10 mM HEPES, pH 7.0, 1% (w/v) SDS, 2 mM MgCl·6H2O supplemented with 0.1% BeyoZonase (Beyotime)) per dish. Samples were quantified using a micro-BCA protein assay kit (Thermo Fisher Scientific) and 600 μg of each sample was processed and digested using the filter aided sample preparation (FASP) method followed by alkylation with iodoacetamide and digestion with trypsin. The samples were then desalted using Oasis HLB C18 SPE cartridge column (Waters, WAT094225). The peptides were lyophilized and reconstituted, then 25 μg peptides of each sample were labeled with TMT 11-plex Isobaric Label Reagent Set (Thermo Fisher Scientific) as the manufacturer’s instructions. After labeling, the peptides from the 11 samples were pooled together. […]
# (§4) The fractions were analyzed sequentially on an Orbitrap Fusion Lumos Mass Spectrometer (Thermo Scientific) coupled to a NanoLC-1200 UHPLC system (Thermo Scientific) with C18 capillary column. […] MS3 precursor were fragmented by HCD and analyzed with Orbitrap at NCE 65, AGC 1E5, resolution 60000.
# (§5) The raw MS data files for all 11 fractions were searched against the Uniprot-Human-Canonical database by Proteome Discoverer 2.0 for protein identification and TMT reporter ion quantitation. […]
# CCNK = assay type: cell-based, Homo sapiens; conditions: 8 h
# Procedure: as §1, §2
# MDA-MB-231 cells were seeded at 8 × 10^5 cells in 6 cm dishes 24 h before treating with 2 μM ZLC491 or DMSO in quadruplicate or triplicate for 8 h. […] Samples were quantified using a micro-BCA protein assay kit (Thermo Fisher Scientific) and 600 μg of each sample was processed and digested using the filter aided sample preparation (FASP) method followed by alkylation with iodoacetamide and digestion with trypsin. […]
# The fractions were analyzed sequentially on an Orbitrap Fusion Lumos Mass Spectrometer (Thermo Scientific) coupled to a NanoLC-1200 UHPLC system (Thermo Scientific) with C18 capillary column. […] MS3 precursor were fragmented by HCD and analyzed with Orbitrap at NCE 65, AGC 1E5, resolution 60000. […]
# B3GAT3 = assay type: cell-based, Homo sapiens; conditions: 2 μM ZLC491 vs DMSO, 8 h
# Procedure: as §2
# as §3, with “together. The pooled TMT 11-plex sample was fractionated using high pH reverse-phase chromatography on an XBridge peptide BEH column (130 Å, 3.5 μm, 2.1 × 150 mm, Waters) on an Ultimate 3000 HPLC system (Thermo Scientific/Dionex).” for “together.”
# as §4, §5
# NME2 = assay type: cell-based, Homo sapiens; conditions: 2 μM ZLC491 vs DMSO, 8 h
# Procedure: as §2
# as §3, with “together. The pooled TMT 11-plex sample was fractionated using high pH reverse-phase chromatography on an XBridge peptide BEH column (130 Å, 3.5 μm, 2.1 × 150 mm, Waters) on an Ultimate 3000 HPLC system (Thermo Scientific/Dionex).” for “together.”
# as §4, §5
# ARG2 = assay type: cell-based, Homo sapiens; conditions: 2 μM ZLC491 vs DMSO, 8 h
# Procedure: as §2
# as §3, with “together. The pooled TMT 11-plex sample was fractionated using high pH reverse-phase chromatography on an XBridge peptide BEH column (130 Å, 3.5 μm, 2.1 × 150 mm, Waters) on an Ultimate 3000 HPLC system (Thermo Scientific/Dionex).” for “together.”
# as §4, §5
# CDK12, sequence (Q9NYV4 whole entry): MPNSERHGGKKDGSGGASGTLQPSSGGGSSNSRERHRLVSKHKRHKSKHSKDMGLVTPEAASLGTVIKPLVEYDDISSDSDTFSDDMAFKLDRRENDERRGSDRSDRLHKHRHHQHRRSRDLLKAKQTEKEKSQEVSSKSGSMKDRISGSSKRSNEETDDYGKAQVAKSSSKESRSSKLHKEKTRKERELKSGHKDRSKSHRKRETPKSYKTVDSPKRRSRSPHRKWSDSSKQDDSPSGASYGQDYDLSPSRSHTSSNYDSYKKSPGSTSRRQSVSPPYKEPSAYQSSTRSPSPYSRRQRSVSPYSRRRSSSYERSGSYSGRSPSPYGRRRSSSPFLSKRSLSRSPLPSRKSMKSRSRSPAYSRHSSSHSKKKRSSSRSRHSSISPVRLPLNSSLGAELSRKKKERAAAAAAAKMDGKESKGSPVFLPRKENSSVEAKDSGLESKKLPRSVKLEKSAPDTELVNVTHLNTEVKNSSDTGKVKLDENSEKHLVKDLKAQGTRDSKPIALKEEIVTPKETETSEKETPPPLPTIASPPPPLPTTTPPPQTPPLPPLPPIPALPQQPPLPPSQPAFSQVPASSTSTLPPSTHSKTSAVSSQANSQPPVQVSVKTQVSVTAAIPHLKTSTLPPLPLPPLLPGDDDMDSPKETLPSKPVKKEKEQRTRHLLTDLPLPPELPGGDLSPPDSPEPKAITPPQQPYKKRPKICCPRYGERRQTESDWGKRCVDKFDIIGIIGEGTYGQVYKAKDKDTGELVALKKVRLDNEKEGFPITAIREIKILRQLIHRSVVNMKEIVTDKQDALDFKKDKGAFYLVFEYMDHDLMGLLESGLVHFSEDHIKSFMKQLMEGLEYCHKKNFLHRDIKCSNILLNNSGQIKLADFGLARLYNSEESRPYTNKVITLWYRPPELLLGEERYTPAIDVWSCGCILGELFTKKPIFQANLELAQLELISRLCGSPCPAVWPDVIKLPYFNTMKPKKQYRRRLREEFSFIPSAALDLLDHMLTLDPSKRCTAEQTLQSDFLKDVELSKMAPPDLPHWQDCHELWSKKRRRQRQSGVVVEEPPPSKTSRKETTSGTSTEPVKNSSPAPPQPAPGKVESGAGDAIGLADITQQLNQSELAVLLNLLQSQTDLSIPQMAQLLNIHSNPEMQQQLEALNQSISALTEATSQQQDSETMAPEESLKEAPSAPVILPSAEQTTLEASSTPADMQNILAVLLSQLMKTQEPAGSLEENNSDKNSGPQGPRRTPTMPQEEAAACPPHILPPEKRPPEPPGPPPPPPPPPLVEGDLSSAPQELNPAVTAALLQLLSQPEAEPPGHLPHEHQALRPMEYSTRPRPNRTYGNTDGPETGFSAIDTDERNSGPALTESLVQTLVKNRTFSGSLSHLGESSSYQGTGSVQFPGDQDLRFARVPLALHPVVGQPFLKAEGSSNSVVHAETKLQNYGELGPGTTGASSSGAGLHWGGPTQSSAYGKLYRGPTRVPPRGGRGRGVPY
# CDK12, sequence (O75909 whole entry partner): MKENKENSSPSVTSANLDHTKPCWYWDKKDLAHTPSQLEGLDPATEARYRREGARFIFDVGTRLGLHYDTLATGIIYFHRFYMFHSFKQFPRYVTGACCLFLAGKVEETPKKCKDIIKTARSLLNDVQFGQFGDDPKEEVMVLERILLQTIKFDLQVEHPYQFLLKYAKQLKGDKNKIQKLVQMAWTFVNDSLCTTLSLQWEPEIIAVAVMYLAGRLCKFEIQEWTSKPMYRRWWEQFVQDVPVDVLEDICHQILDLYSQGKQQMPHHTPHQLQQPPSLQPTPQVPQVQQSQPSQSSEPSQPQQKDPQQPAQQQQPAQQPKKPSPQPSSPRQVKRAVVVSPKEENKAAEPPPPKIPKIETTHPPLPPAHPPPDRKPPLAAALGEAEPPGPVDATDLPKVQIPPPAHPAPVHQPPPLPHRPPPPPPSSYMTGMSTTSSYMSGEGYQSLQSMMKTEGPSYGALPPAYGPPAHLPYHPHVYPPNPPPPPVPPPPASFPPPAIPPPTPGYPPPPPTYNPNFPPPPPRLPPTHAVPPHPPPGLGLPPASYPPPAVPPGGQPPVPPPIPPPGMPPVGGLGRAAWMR
compound,measurement,setting,value
"N#Cc1ccc(N[C@H]2CC[C@H](N(C(=O)NCc3ccccc3)c3ccc(N4CCN(C5CCN(c6cc7c(cc6F)C(=O)N(C6CCC(=O)NC6=O)C7=O)CC5)CC4)cc3)CC2)nc1 (some centres unmarked) [ZLC491, 3-Benzyl-1-((1r,4r)-4-((5-cyanopyridin-2-yl)amino)cyclohexyl)-1-(4-(4-(1-(2-(2,6-dioxopiperidin-3-yl)-6-fluoro-1,3-dioxoisoindolin-5-yl)piperidin-4-yl)piperazin-1-yl)phenyl)urea]",FC_4-91 (CDK12),CDK12; 2 μM ZLC491 vs DMSO,0.249
same,CDK12 level in global proteomics,CDK12; 2 μM,significantly decreased
same,selectivity among CDKs in global proteomics,CDK12; 2 μM,selective for CDK12 over other CDKs
same,FC_4-91 (CCNK),CCNK; 2 μM ZLC491 vs DMSO,0.4255
same,CCNK level in global proteomics,CCNK; 2 μM,significantly decreased
same,FC_4-91 (B3GAT3),B3GAT3,1.982
same,FC_4-91 (NME2),NME2,1.1277
same,FC_4-91 (ARG2),ARG2,1.14
